# Assay results as given in US20050143927A1, “Method for estimating or predicting the anti-tumor activity of a compound and for estimating or predicting the tumor growth in mammals” (Pharmacia Italia S.p.A., priority 2002, published 2005).
# Tested on: GTL16 (human stomach carcinoma)
# Experiment: Tumor growth model for treated subjects, GTL16 inoculated subcutaneously in athymic nude mice (Experiment-A)
# Assay type: in vivo
# Excerpt: The cell line GTL16 (human stomach carcinoma) was inoculated subcutaneously on the back of 44 athymic nude male mice, initially weighing 17.9-28.1 g.
# The dimensions of the tumor can be taken applying different types of measurements broadly classifiable as measurements of linear dimensions, of volume (or mass) and cell number. For tumors that maintain more or less a spherical morphology, as in the case of solid tumors, the measurement of the three principal diameters results the most adequate, as well as the most practiced solution. Nevertheless, in the case of subcutaneous tumors, the tumor can be considered of spherical shape only during the initial phase of growth; in the following phases, the dimension perpendicular to the skin is generally much smaller than the percutaneous dimensions, conferring to the mass a plaque-like shape or an hemi-ellipsoidal shape. In the experiments taken into consideration, only the dimensions of the two percutaneous diameters were directly measured with vernier calipers. The third dimension was not directly measured, because of the limited accessibility (which would have required a greater invasiveness), in the assumption that two measures were anyhow sufficient to guarantee a good approximation of the tumor mass (K. Rygaard and M. Spang-Thomsen, “Quantitation and Gompertzian analysis of tumor growth”. Breast Cancer Research and Treatment, 46: 303-312,1997).
# The volume of a tumor can be indirectly calculated by applying the following empirical formula: [formula] where DMIN and DMAX denote, respectively, the smallest and the largest percutaneous diameter. Such empirical formula hypothesizes that the neoplasia has an ellipsoidal shape (D. A. Cameron, W. M. Gregory, A. Bowman, E. D. C. Anderson, P. Levack, P. Forouhi and R. F. C. Leonard, “Identification of long-term survivors in primary breast cancer by dynamic modeling of tumour response”. British Journal of Cancer, 83(1): 98-103, 2000, Hammond, L. A.; Hilsenbeck, S. G.; Eckhardt, S. G.; Marty, J; Mangold, G.; MacDonald, G. R.; Rowinsky, E. K.; Von Hoff, D. D; Weitman S. Enhanced antitumour activity of 6-hydroxymethylacylfulvene in combination with topotecan or paclitaxel in the MV522 lung carcinoma xenograft model. European Journal of Cancer 2000, 36, 2430-2436) obtained by the rotation of a hemi-ellipsoid (with DMIN and DMAX as axes of the percutaneous plane) around its largest axe. Assuming δ as a constant density equal to δ=10^−3g/mm^3, the empirical expression for the mass of the neoplasia results to be: [formula] The Measurement Error Model
# As it regards the model of tumor growth, the error model above introduced is instead known. For the observed measurements of a generic quantity y (for instance the weight of the tumor), the constant coefficient of variation error model (3.5 and 3.6) asserts that the standard deviation of the error varies linearly with the dimension the measured quantity. With an error model of this kind, the technique of the weighed least squares (Weighed Least Squares, WLS), described in M. E. Dagna, “Identificazione di modelli farmacocinetici di popolazione”; Università degli Studi di Pavia 1999, herein incorporated as far as the WLS technique is concerned, is more adequate.
# [1] = mean of the twelve treated mice (20, 30, 40 mg/kg q4dx3)
# [2] = mouse 0, 20 mg/kg iv-bolus q4dx3
# [3] = mouse 26, 40 mg/kg iv-bolus q4dx3
# [4] = mouse 28, 30 mg/kg iv-bolus q4dx3
# [5] = mouse 31, 20 mg/kg iv-bolus q4dx3
# [6] = mouse 55, 20 mg/kg iv-bolus q4dx3
# [7] = mouse 59, 30 mg/kg iv-bolus q4dx3
# [8] = mouse 64, 30 mg/kg iv-bolus q4dx3
# [9] = mouse 69, 20 mg/kg iv-bolus q4dx3
# [10] = mouse 78, 40 mg/kg iv-bolus q4dx3
# [11] = mouse 80, 40 mg/kg iv-bolus q4dx3
# [12] = mouse 81, 40 mg/kg iv-bolus q4dx3
# [13] = mouse 88, 30 mg/kg iv-bolus q4dx3
# [14] = treated mouse 0, 20 mg/kg iv-bolus q4dx3
# [15] = treated mouse 26, 40 mg/kg iv-bolus q4dx3
# [16] = treated mouse 28, 30 mg/kg iv-bolus q4dx3
# [17] = treated mouse 31, 20 mg/kg iv-bolus q4dx3
# [18] = treated mouse 55, 20 mg/kg iv-bolus q4dx3
# [19] = treated mouse 59, 30 mg/kg iv-bolus q4dx3
# [20] = treated mouse 64, 30 mg/kg iv-bolus q4dx3
# [21] = treated mouse 69, 20 mg/kg iv-bolus q4dx3
# [22] = treated mouse 78, 40 mg/kg iv-bolus q4dx3
# [23] = treated mouse 80, 40 mg/kg iv-bolus q4dx3
# [24] = treated mouse 81, 40 mg/kg iv-bolus q4dx3
# [25] = treated mouse 88, 30 mg/kg iv-bolus q4dx3
smiles,measurement,setting,value
"CC(=O)O[C@H]1C(=O)[C@@]2(C)[C@H]([C@H](OC(=O)c3ccccc3)[C@]3(O)C[C@H](OC(=O)[C@H](O)[C@@H](NC(=O)c4ccccc4)c4ccccc4)C(C)=C1C3(C)C)[C@]1(OC(C)=O)CO[C@@H]1C[C@@H]2O [Drug-A, paclitaxel]","K1, mean",[1],0.1879 day⁻¹
same,"K2, mean",[1],0.002921 mL/g/day
same,"λ0, mean",[1],0.2467
same,"λ1, mean",[1],0.1274
same,K1 (index of the tumor cells death rate),[2],0.2057 day⁻¹
same,K2 (index of the potency of the compound),[2],0.01878 mL/g/day
same,K1 (index of the tumor cells death rate),[3],0.1658 day⁻¹
same,K2 (index of the potency of the compound),[3],0.00315 mL/g/day
same,K1 (index of the tumor cells death rate),[4],0.1406 day⁻¹
same,K2 (index of the potency of the compound),[4],0.000759 mL/g/day
same,K1 (index of the tumor cells death rate),[5],0.2683 day⁻¹
same,K2 (index of the potency of the compound),[5],0.003356 mL/g/day
same,K1 (index of the tumor cells death rate),[6],0.2424 day⁻¹
same,K2 (index of the potency of the compound),[6],0.002721 mL/g/day
same,K1 (index of the tumor cells death rate),[7],0.192 day⁻¹
same,K2 (index of the potency of the compound),[7],0.000563 mL/g/day
same,K1 (index of the tumor cells death rate),[8],0.1646 day⁻¹
same,K2 (index of the potency of the compound),[8],0.001085 mL/g/day
same,K1 (index of the tumor cells death rate),[9],0.1515 day⁻¹
same,K2 (index of the potency of the compound),[9],0.001361 mL/g/day
same,K1 (index of the tumor cells death rate),[10],0.2056 day⁻¹
same,K2 (index of the potency of the compound),[10],0.001507 mL/g/day
same,K1 (index of the tumor cells death rate),[11],0.209 day⁻¹
same,K2 (index of the potency of the compound),[11],0.000178 mL/g/day
same,K1 (index of the tumor cells death rate),[12],0.2206 day⁻¹
same,K2 (index of the potency of the compound),[12],0.000314 mL/g/day
same,K1 (index of the tumor cells death rate),[13],0.08819 day⁻¹
same,K2 (index of the potency of the compound),[13],0.001276 mL/g/day
same,"LAMBDA0 (production rate of tumor cells, exponential phase)",[14],0.2601
same,"LAMBDA1 (tumor cells mass produced in the time unit, linear phase)",[14],0.1563
same,"LAMBDA0 (production rate of tumor cells, exponential phase)",[15],0.2087
same,"LAMBDA1 (tumor cells mass produced in the time unit, linear phase)",[15],0.1678
same,"LAMBDA0 (production rate of tumor cells, exponential phase)",[16],0.2396
same,"LAMBDA1 (tumor cells mass produced in the time unit, linear phase)",[16],0.16
same,"LAMBDA0 (production rate of tumor cells, exponential phase)",[17],0.2726
same,"LAMBDA1 (tumor cells mass produced in the time unit, linear phase)",[17],0.08095
same,"LAMBDA0 (production rate of tumor cells, exponential phase)",[18],0.2377
same,"LAMBDA1 (tumor cells mass produced in the time unit, linear phase)",[18],0.07223
same,"LAMBDA0 (production rate of tumor cells, exponential phase)",[19],0.2458
same,"LAMBDA1 (tumor cells mass produced in the time unit, linear phase)",[19],0.07275
same,"λ0 (production rate of tumor cells, exponential phase)",[20],0.2565
same,"λ1 (tumor cells mass produced in the time unit, linear phase)",[20],0.18
same,"λ0 (production rate of tumor cells, exponential phase)",[21],0.2464
same,"λ1 (tumor cells mass produced in the time unit, linear phase)",[21],0.1782
same,"λ0 (production rate of tumor cells, exponential phase)",[22],0.2438
same,"λ1 (tumor cells mass produced in the time unit, linear phase)",[22],0.1276
same,"λ0 (production rate of tumor cells, exponential phase)",[23],0.234
same,"λ1 (tumor cells mass produced in the time unit, linear phase)",[23],0.05985
same,"λ0 (production rate of tumor cells, exponential phase)",[24],0.2723
same,"λ1 (tumor cells mass produced in the time unit, linear phase)",[24],0.0685
same,"λ0 (production rate of tumor cells, exponential phase)",[25],0.2431
same,"λ1 (tumor cells mass produced in the time unit, linear phase)",[25],0.2049
